Assays:
Test in all cases: biochemical
FimHtrF18 = target: T1, FimHtrF18 (Escherichia coli, UniProt P08191, N91S/S99N/V48A); format: binding, E. coli fecal (F18) strain; details: for Kd: Table 3, [3H]-mannose displacement assay (mannose measured directly), read-out: KD F18; for ΔG° F18: Table 3, calculated from KD
T1 construct: coding for the lectin domain of FimH (residues 1-158) with a C-terminal 6-histidine tag; made in house; host or cells: E. coli HB101 (lacking the fim operon), periplasmic extract, plasmid pPKL316
T1 sequence (P08191 22-179 V48A/N91S/S99N): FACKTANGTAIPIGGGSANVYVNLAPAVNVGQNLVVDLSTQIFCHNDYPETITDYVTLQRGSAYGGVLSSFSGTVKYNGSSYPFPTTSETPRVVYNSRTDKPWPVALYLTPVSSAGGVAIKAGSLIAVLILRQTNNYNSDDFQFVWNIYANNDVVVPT
Method: (§1) To investigate if these variations reflect differences in sugar binding at the molecular level, the dissociation constants of a series of mannosides for the FimH lectin domain from a fecal (F18) and from a UPEC (Cl#4) strain were determined. […] For comparison, binding to FimHtrJ96 was also investigated. Both F18 and Cl#4 FimH lectin domains were cloned, expressed, and purified in the same way as FimHtrJ96 (Schembri et al., 2000). These two lectin domains differ from the lectin domain of FimHJ96 by substitutions Val27Ala, Asn70Ser and Ser78Asn. In addition, FimHCl#4 differs from the other two variants by a Gly73Glu substitution. […] Five different tri-mannosides corresponding to high-mannose substructures were synthesized, and their binding to FimHtrJ96, FimHtrF18 and FimHtrCl#4 measured using our [^3H]-mannose displacement assay (Table 3). Alpha-D-mannose binding was first directly measured for each of the FimH variants.
(§2) [^3H]alpha-D-mannose was obtained from Amersham. […] Syntheses of tri-mannosides was as reported earlier by Oscarson and co-workers (1993). Weighed amounts of tri-mannosides were dissolved in double distilled water to give stock solutions of 0.87 M man-(1,2)-man-(1,2)-man, 0.25 M man-(1,2)-man-(1,3)-man, 0.27 M man-(1,2)-man-(1,6)-man, 0.30 M man-(1,3)-man-(1,6)-man, 0.13 M man-(1,6)-man-(1,6)-man. Similarly, alkyl mannosides were dissolved in double distilled water to give stock solutions of 100 mM methyl mannoside, 59.8 mM ethyl mannoside, 45.9 mM propyl mannoside, 51.9 mM butyl mannoside, 17.3 mM pentyl mannoside, 20.8 mM hexyl mannoside, 15.3 mM heptyl mannoside, 15.2 mM octyl mannoside. pNPalphaMan and MeUmbalphaMan (6 mg each) were dissolved in 20 μl DMSO and diluted to 20 mM using double distilled water. Binding experiments were performed using six different concentrations of [^3H]-alpha-D-mannose (final concentrations 43.5 μM, 29.0 μM, 19.3 μM, 12.9 μM, 8.6 μM, 5.7 μM). FimHtrJ96 obtained by growing bacteria in minimal medium was used in all binding experiments. 180 μl protein at a concentration of about 500 nM was mixed with 20 μl of the radioactive ligand, and incubated at 37° C. for 20 min. To separate free ligand from bound, the mixture was rapidly filtrated through a Protran BA 85 Cellulose-nitrate filter (Schleicher & Schuell, Dassel, Germany), and washed once with 1 ml of ice-cold 1× PBS (phosphate buffered saline). Filter-bound radioactivity was measured by scintillation spectrometry within 24 hours. The displacement experiments were performed using six different concentrations (final concentrations in the range 0.0˜43.5 μM) of the inhibitor, in the presence of 43.5 μM [^3H]-alpha-D-mannose. 20 μl radioactive ligand, 20 μl inhibitor at decreasing concentrations, and 160 μl protein (500 nM) were mixed, and the experiments performed as above. All experiments were performed in duplicates. For determination of KD for α-D-mannose, a hyperbolic curve (y=P1x/(P2+x), where P2=KD) was fitted to the data. For the displacement experiments, the curve y=P1/(P2+x), where P2 is the concentration of the inhibitor displacing 50% of the labelled ligand, [I]0.5 was used instead. To calculate the inhibitor dissociation constant (KI) the Cheng & Prusoff equation (KI=[I]0.5/([L]/KL+1); KL is the constant of dissociation for the ligand) (Cheng and Prusoff, 1973), was used when both the concentration of the radioactive ligand (L) and the displacing agent (I) are in excess over the protein (LT>>PT;IT>>PT, T indicates total concentration). […] A plot of IT/((1−Y)*(LT/KL)−Y) against 1/Y gives a straight line with a slope of KI.

FimHtrCl#4 = target: T2, FimHtrCl#4 (Escherichia coli, UniProt P08191, G94E/N91S/S99N/V48A); format: binding, E. coli UPEC (Cl#4) strain; details: for Kd: Table 3, [3H]-mannose displacement assay (mannose measured directly), read-out: KD CI#4; for ΔG° CI#4: Table 3, calculated from KD
T2 construct: coding for the lectin domain of FimH (residues 1-158) with a C-terminal 6-histidine tag; made in house; host or cells: E. coli HB101 (lacking the fim operon), periplasmic extract, plasmid pMAS146
T2 sequence (P08191 22-179 V48A/N91S/G94E/S99N): as the sequence (P08191 22-179 V48A/N91S/S99N) above, with G73E counted along it
Method: as §1, §2

FimHtrJ96 = target: T3, FimHtrJ96 (Escherichia coli, UniProt P08191); format: binding, uropathogenic E. coli strain J96; details: for Kd: Table 3, [3H]-mannose displacement assay (mannose measured directly), read-out: KD J96; for ΔG° J96: Table 3, calculated from KD
T3 construct: coding for the lectin domain of FimH (residues 1-158) with a C-terminal 6-histidine tag; made in house; host or cells: E. coli HB101 (lacking the fim operon), periplasmic extract, plasmid pPKL241
T3 sequence (P08191 22-179): as the sequence (P08191 22-179 V48A/N91S/S99N) above, with A27V, S70N, N78S counted along it
Method: To measure the dissociation constant for FimH:alkyl or aryl-mannoside binding, two different binding assays were developed. The first binding assay uses [^3H]-mannose. The amount of radioactively labeled mannose bound to FimHtrJ96 was measured at six different concentrations of [^3H]-mannose, and a hyperbolic curve fitted to the resulting data (FIG. 1A). FimHtrJ96 corresponds to the carbohydrate (mannose) binding domain of FimH from the uropathogenic E. coli strain J96. The dissociation equilibrium constant was determined from this graph at the concentration of mannose […], which corresponds to occupation of half of the binding sites.
Surface Plasmon Resonance measurements were performed on a Biacore3000™. In a first experiment, the kinetic constants and maximal binding were determined for the FimH-antibody interaction. Next, a fixed concentration of FimH (close to the KD of the FimH-antibody interaction) in combination with varying concentrations of carbohydrate, were used to determine the dissociation equilibrium constant of the FimH-saccharide interaction in a competition experiment. Every measurement was repeated at least twice, including testing the variation between different protein and saccharide batches.
To eliminate the possibility of different binding strength for full length FimH and FimHtrJ96, the binding of alpha-D-mannose to FimC:FimH complex was also measured. […] The inhibition of [^3H]-mannose binding was used in a displacement assay to determine the dissociation constant for a synthetic butyl mannoside by measuring the amount of [^3H]-mannose bound to the protein in the presence of increasing amounts of the inhibitor (FIG. 1B). […] To investigate the effect of sequential addition of methyl groups to the O1 oxygen of D-mannose, a series of alkyl mannosides were synthesized and the dissociation constants determined using the [^3H]-mannose displacement assay and by surface plasmon resonance (Table 1).
Surface Plasmon Resonance measurements were performed on a Biacore3000™. The Fab fragments of a monoclonal antibody against FimH were covalently immobilised via lysines at 1000 Resonance Units (1000 pg ligand/mm^2) in flowcell Fc2 on a CM5 biasensor chip (BIAapplications Handbook, Biacore AB, Uppsala, Sweden). Immobilisation buffer was 100 mM NaAc pH 5.0 with 100 mM NaCl. The reference flowcell Fc1 was left blank.
Binding of FimH to the immobilized antibody was measured with a Biacore 3000 instrument in running buffer (phosphate buffered saline with 0.005% surfactant P20 and 3 mM EDTA), on both flowcells Fc1 and Fc2 simultaneously, at a flow rate of 30 μl/min and at 25° C. Complete dissociation of FimH was done with running buffer before starting a new binding cycle. For all measurements, the association time was 3 minutes, the dissociation time was 30 min. All binding cycles were performed in duplicate, including a zero concentration cycle of FimH (injection of running buffer).
In a first experiment, the kinetic constants, ka and kd, and the maximal binding Rmax, were determined for the FimH-antibody interaction (FimH concentrations (nM): 2000, 1000, 500, 250, 125, 62.5, 31.25, 15.625, 7.818, 3.911, 1.957, 0). All analyses were performed with the BIAeval software. A Langmuir binding isotherm with a 1:1 stoichiometry was fitted to the data, from which the kinetic constants and maximal binding were obtained.
In the next experiment, samples containing a fixed concentration of FimH (close to the KD of the FimH-antibody interaction) in combination with varying concentrations of saccharide, were used to determine the dissociation constant of the FimH-saccharide interaction in a competition experiment. First, ten-fold dilutions of the saccharide solution were used to determine the concentration range for binding of the saccharide to FimH.

Structure (SMILES)	Kd (FimHtrF18) [nM]	ΔG° F18 (FimHtrF18) [kcal/mol]	Kd (FimHtrCl#4) [nM]	ΔG° CI#4 (FimHtrCl#4) [kcal/mol]	Kd (FimHtrJ96) [nM]	ΔG° J96 (FimHtrJ96) [kcal/mol]
OC[C@H]1O[C@H](O[C@@H]2[C@H](O)[C@@H](OC[C@H]3OC(O)[C@@H](O)[C@@H](O)[C@@H]3O)O[C@H](CO)[C@H]2O)[C@@H](O)[C@@H](O)[C@@H]1O (stereo partly drawn) [man-(1,3)-man-(1,6)-man]	730	-8.7	1030	-8.5	485	-8.6
OC[C@H]1O[C@H](OC[C@H]2O[C@H](OC[C@H]3OC(O)[C@@H](O)[C@@H](O)[C@@H]3O)[C@@H](O)[C@@H](O)[C@@H]2O)[C@@H](O)[C@@H](O)[C@@H]1O (stereo partly drawn) [man-(1,6)-man-(1,6)-man]	5900	-7.4	7500	-7.3	1400	-8.3
